In patent US4372971A, “Heterocyclic prostaglandin type compounds, medicaments containing them and processes for the preparation and use of these heterocyclic compounds and medicaments” (priority 1980, dated 1983):
Structures can show the parent of a compound that is named as a salt. Where two headings read alike, the source gives them in different places.

Experiments:
blood pressure = experiment: Blood pressure lowering in conscious, spontaneous hypertensive rats; type: in vivo, rat; settings: for Relative blood pressure lowering activity: relative to 5,6-dihydroprostacyclin = 1.0; for Effect in relation to maximum effect, 10 min. after administration (blood pressure lowering) / Effect in relation to maximum effect, 30 min. after administration (blood pressure lowering): maximum effect = 100%
Text: (§1) Surprising for the compounds according to the invention is the relation of their blood platelet aggregation inhibiting effect to their blood pressure lowering activity.
Relative blood pressure lowering activity in
conscious, spontaneous hypertensive rats (measurement
via in-dwelling catheter; intravenous administration
of the test compounds; the ED20 for 5,6-dihydroprosta-
cyclin under these experimental conditions is 0.005
Duration of the blood pressure lowering effect
in conscious, spontaneous hypertensive rats (intra-

[1] = test system: platelet aggregation versus blood pressure; experiment: Index of selectivity: platelet aggregation inhibition versus blood pressure lowering (from Tables 1b and 1c); type: in vivo, rat; settings: for Index of selectivity: in comparison to 5,6-dihydroprostacyclin, calculated from Tables 1b and 1c
Text: as §1
in comparison to 5,6-dihydroprostacyclin (calculated

human thrombocytes = experiment: Inhibition of arachidonic acid induced aggregation of human thrombocytes in-vitro; type: cell-based; settings: for Relative activity against the aggregation of human thrombocytes induced by arachidonic acid: relative to 5,6-dihydroprostacyclin = 1.0
Text: Relative activity against the aggregation
of human thrombocytes induced by arachidonic acid
in-vitro (the IC50, i.e., the concentration causing
under the experimental conditions in 50% of the cases
inhibition of the platelet aggregation for 5,6-di-

[2] = test system: ADP induced fall in platelet count; experiment: ADP induced fall in platelet count in-vivo in narcotized rats; design: species or system rat; settings: for Relative activity on the ADP induced fall in platelet count in-vivo: relative to 5,6-dihydroprostacyclin = 1.0; for Relative activity on the ADP induced fall in platelet count in-vivo / Maximum effect % Aggregation inhibition: narcotized rats; for Effect in relation to maximum effect, 10 min. after administration (aggregation inhibition) / Effect in relation to maximum effect, 30 min. after administration (aggregation inhibition): maximum effect = 100%
Protocol: as §1
Relative activity on the ADP induced fall
in platelet count in-vivo in narcotized rats (urethane
narcosis; intravenous administration of the test
compounds; the ED50 for 5,6-dihydroprostacyclin under
these experimental conditions is 0.0114 mg/kg):
Duration of the platelet aggregation inhibiting
effect in-vivo (measured with the model of ADP induced
fall in platelet count in narcotized rats on intra-
venous administration of the test compounds)

isolated rat uterus = experiment: Contraction inducing activity on isolated rat uterus; settings: Prostaglandin F2α = 100%
Text: (§2) Relative contraction inducing activities
(a) tests on isolated rat uterus

isolated rat colon = experiment: Contraction inducing activity on isolated rat colon; settings: Prostaglandin F2α = 100%
Text: as §2
(b) tests on isolated rat colon

Chemical stability = type: physicochemical
[3] = test system: smooth muscle of the intestine and uterus; settings: cited from earlier work; for Smooth muscle contraction: intestine and uterus
[4] = test system: platelet aggregation versus blood pressure; settings: background; cited from earlier work
[5] = background; cited from earlier work
[6] = test system: ADP induced fall in platelet count; settings: background statement; also blood pressure lowering; cited from earlier work
[7] = conscious spontaneous hypertensive rats, intravenous

CCCCC[C@](C)(O)/C=C/[C@@H]1[C@H]2C/C(=C\c3cccc(C(=O)O)c3)O[C@H]2C[C@H]1O [1e)ii), Sodium salt of [(5E, 13E, 9α, 11α, 15S)-2,3,4-trinor-1,5-inter-m-phenylene-6,9-epoxy-11,15-dihydroxy-15-methyl]-prosta-5,13-dienoic acid]
Relative blood pressure lowering activity (blood pressure; [7]): 0.014 | Index of selectivity [1]: 69.3 | Relative activity against the aggregation of human thrombocytes induced by arachidonic acid (human thrombocytes; in-vitro): 0.25 | Relative activity on the ADP induced fall in platelet count in-vivo ([2]; intravenous): 0.97

CCCCCC(O)C=CC1C(O)CC2OC(CCCCC(=O)O)CC21 (stereo not shown) [5,6-Dihydroprostacyclin, 5,6-dihydroprostacyclin, reference compound]
Maximum effect % Blood pressure lowering (blood pressure; 0.0215 mg/kg intravenous): 28% | Effect in relation to maximum effect, 10 min. after administration (blood pressure lowering) (blood pressure; 0.0215 mg/kg intravenous): 7.1% | Effect in relation to maximum effect, 30 min. after administration (blood pressure lowering) (blood pressure; 0.0215 mg/kg intravenous): 0% | ED20, blood pressure lowering (blood pressure; conscious spontaneous hypertensive rats, intravenous, in-dwelling catheter): 5 µg/kg | Relative blood pressure lowering activity (blood pressure; [7]): 1.0 | Relative contraction inducing activity (isolated rat uterus): 26.1% | Relative contraction inducing activity (isolated rat colon): 23.8% | Index of selectivity [1]: 1.0 | Relation of platelet aggregation inhibiting to blood pressure lowering dosage ([1]; rat, in vivo): produces both these effects at the same dosage range | IC50 (human thrombocytes; human thrombocytes, induced by arachidonic acid, in-vitro, read-out: IC50, inhibition of platelet aggregation): 180 nM | Relative activity against the aggregation of human thrombocytes induced by arachidonic acid (human thrombocytes; in-vitro): 1.0 | Chemical stability (Chemical stability): chemically stable | Maximum effect % Aggregation inhibition ([2]; 0.1 mg/kg intravenous): 62.4% | Effect in relation to maximum effect, 10 min. after administration (aggregation inhibition) ([2]; 0.1 mg/kg intravenous): 33.8% | Effect in relation to maximum effect, 30 min. after administration (aggregation inhibition) ([2]; 0.1 mg/kg intravenous): 0% | Duration of aggregation inhibiting and blood pressure lowering activities ([2]; also blood pressure lowering): only for a short time | ED50, ADP induced fall in platelet count ([2]; narcotized rats (urethane), intravenous): 11.4 µg/kg | Relative activity on the ADP induced fall in platelet count in-vivo ([2]; intravenous): 1.0

CCCCC[C@](C)(O)/C=C/[C@@H]1[C@H]2C/C(=C/c3cccc(C(=O)O)c3)O[C@H]2C[C@H]1O [Example 1e)i), Sodium salt of [(5Z, 13E, 9α, 11α, 15S)-2,3,4-trinor-1,5-inter-m-phenylene-6,9-epoxy-11,15-dihydroxy-15-methyl]-prosta-5,13-dienoic acid]
Relative blood pressure lowering activity (blood pressure; [7]): 0.1 | Relative contraction inducing activity (isolated rat uterus): 0.58% | Relative contraction inducing activity (isolated rat colon): 0.002% | Index of selectivity [1]: 13.0 | Relative activity against the aggregation of human thrombocytes induced by arachidonic acid (human thrombocytes; in-vitro): 0.86 | Maximum effect % Aggregation inhibition ([2]; 1.0 mg/kg intravenous): 72.7% | Effect in relation to maximum effect, 10 min. after administration (aggregation inhibition) ([2]; 1.0 mg/kg intravenous): 69.3% | Effect in relation to maximum effect, 30 min. after administration (aggregation inhibition) ([2]; 1.0 mg/kg intravenous): 41.3% | Relative activity on the ADP induced fall in platelet count in-vivo ([2]; intravenous): 1.3

CCCCC[C@H](O)/C=C/[C@@H]1[C@H]2C/C(=C\c3cccc(C(=O)O)c3)O[C@H]2C[C@H]1O [Example 2a, Sodium salt of [(5E, 13E, 9α, 11α, 15S)-2,3,4-trinor-1,5-inter-m-phenylene-6,9-epoxy-11,15-dihydroxy]-prosta-5,13-dienoic acid]
Relative activity against the aggregation of human thrombocytes induced by arachidonic acid (human thrombocytes; in-vitro): 1.2

CCCCC[C@H](O)/C=C/[C@@H]1[C@H]2C/C(=C/c3cccc(C(=O)O)c3)O[C@H]2C[C@H]1O [Example 2b, Sodium salt of [(5Z, 13E, 9α, 11α,15S)-2,3,4-trinor-1,5-inter-m-phenylene-6,9-epoxy-11,15-dihydroxy]prosta-5,13-dienoic acid]
Relative activity against the aggregation of human thrombocytes induced by arachidonic acid (human thrombocytes; in-vitro): 1.2

O=C(O)c1cccc(/C=C2/C[C@@H]3[C@@H](/C=C/[C@@H](O)C4CCCCC4)[C@H](O)C[C@@H]3O2)c1 [Example 3b, Sodium salt of [(5Z, 13E, 9α, 11α, 15S)-2,3,4-trinor-1,5-inter-m-phenylene-6,9-epoxy-11,15-dihydroxy-15-cyclohexyl-16,17,18,19,20-pentanor]-prosta-5,13-dienoic acid]
Maximum effect % Blood pressure lowering (blood pressure; 0.1 mg/kg intravenous): 23% | Effect in relation to maximum effect, 10 min. after administration (blood pressure lowering) (blood pressure; 0.1 mg/kg intravenous): 87.0% | Effect in relation to maximum effect, 30 min. after administration (blood pressure lowering) (blood pressure; 0.1 mg/kg intravenous): 39.1% | Relative blood pressure lowering activity (blood pressure; [7]): 0.25 | Index of selectivity [1]: 20.0 | Activity compared with 5,6-dihydroprostacyclin, in-vitro (human thrombocytes; in-vitro (Table 1a)): several times more active than 5,6-dihydroprostacyclin | Relative activity against the aggregation of human thrombocytes induced by arachidonic acid (human thrombocytes; in-vitro): 18.0 | Maximum effect % Aggregation inhibition ([2]; 0.1 mg/kg intravenous): 72.5% | Effect in relation to maximum effect, 10 min. after administration (aggregation inhibition) ([2]; 0.1 mg/kg intravenous): 62.6% | Effect in relation to maximum effect, 30 min. after administration (aggregation inhibition) ([2]; 0.1 mg/kg intravenous): 66.3% | Activity compared with 5,6-dihydroprostacyclin, in-vivo ([2]; in-vivo (Table 1b)): several times more active than 5,6-dihydroprostacyclin | Relative activity on the ADP induced fall in platelet count in-vivo ([2]; intravenous): 5.0

CCCCC(CC)[C@H](O)/C=C/[C@@H]1[C@H]2C/C(=C/c3cccc(C(=O)O)c3)O[C@H]2C[C@H]1O (stereo partly drawn) [Example 4b, Sodium salt of [(5Z, 13E, 9α, 11α, 15S, 16RS)-2,3,4-trinor-1,5-inter-m-phenylene-6,9-epoxy-11,15-dihydroxy-16-ethyl]-prosta-5,13-dienoic acid]
Maximum effect % Blood pressure lowering (blood pressure; 1.0 mg/kg intravenous): 22% | Effect in relation to maximum effect, 10 min. after administration (blood pressure lowering) (blood pressure; 1.0 mg/kg intravenous): 90.9% | Effect in relation to maximum effect, 30 min. after administration (blood pressure lowering) (blood pressure; 1.0 mg/kg intravenous): 68.2% | Relative blood pressure lowering activity (blood pressure; [7]): 0.012 | Index of selectivity [1]: 16.7 | Relative activity against the aggregation of human thrombocytes induced by arachidonic acid (human thrombocytes; in-vitro): 0.31 | Maximum effect % Aggregation inhibition ([2]; 1.0 mg/kg intravenous): 66.8% | Effect in relation to maximum effect, 10 min. after administration (aggregation inhibition) ([2]; 1.0 mg/kg intravenous): 45.4% | Effect in relation to maximum effect, 30 min. after administration (aggregation inhibition) ([2]; 1.0 mg/kg intravenous): 24.5% | Relative activity on the ADP induced fall in platelet count in-vivo ([2]; intravenous): 0.2

CCCCC[C@H](O)/C=C/[C@H]1[C@H](O)CC(=O)[C@@H]1C/C=C\CCCC(=O)O [PGE2]
Side effects in-vivo ([3]; administered in-vivo): may induce diarrhea and abortion | Smooth muscle contraction [3]: cause contraction of the smooth muscle of the intestine and uterus

CCCCC[C@H](O)/C=C/[C@@H]1[C@H]2C/C(=C/CCCC(=O)O)O[C@H]2C[C@H]1O [Prostacyclin, prostacyclin]
Relation of platelet aggregation inhibiting to blood pressure lowering dosage [4]: exhibited at generally the same dosage level | Stability [5]: not as stable as would be desirable | Duration of aggregation inhibiting and blood pressure lowering activities [6]: only for a short time

CCCCC[C@H](O)/C=C/[C@@H]1[C@@H](C/C=C\CCCC(=O)O)[C@@H](O)C[C@H]1O [Prostaglandin F2α]
Relative contraction inducing activity (isolated rat uterus): 100% | Relative contraction inducing activity (isolated rat colon): 100% | Side effects in-vivo [3]: may induce diarrhea and abortion | Smooth muscle contraction [3]: cause contraction of the smooth muscle of the intestine and uterus
